Data reported in patent publication US20060233711A1, “Method for treating conditions associated with fear memory” (priority 2005, published 2006).

Assays:
GluR5 = details: treated animals; cited from earlier work
[1] = test system: EPSCs in LA neurons (thalamic input); test: Whole-cell patch-clamp recording of EPSCs in lateral amygdala neurons in slices; assay type: cell-based, mice
Protocol: Transverse slices ([…]) of the amygdala were transferred to a room temperature submerged recovery chamber with oxygenated (95% O2 and 5% CO2) ACSF solution as described above. After a one hour recovery, slices were placed in a recording chamber on the stage of an Axioskop 2FS microscope (Zeiss) equipped with infrared DIC optics for visualized whole-cell patch clamp recordings. Excitatory postsynaptic currents were recorded from cells in the lateral amygdala with an Axon 200B amplifier (Axon Instruments, Calif., USA). Electrical stimulations (200 μsec duration) were delivered by a bipolar tungsten stimulating electrode placed in the internal capsule (thalamic inputs) (Tsvetkov et al., 2004). EPSCs were induced by repetitive stimulations at 0.02-0.05 Hz and neurons were voltage clamped at −70 mV. In all experiments, the stimulus intensity was adjusted to produce synaptic responses with an amplitude of 70-100 pA. […] Access resistance was 15-30 M ? and monitored throughout the experiment. […]

AMPA receptors = details: cited from earlier work
KARs = details: SYM2206 at 100 μM; cited from earlier work

## O=C(O)c1ccc(C[C@H]2CC[C@H]3CN[C@H](C(=O)O)C[C@H]3C2)cc1 [LY382884]
GluR5
  behavioral responses to formalin and Complete Freund's adjuvant (CFA): reduced

## CCCNC(=O)N1N=C(c2ccc(N)cc2)c2cc3c(cc2C1C)OCO3 (racemic) [SYM2206, (±)-4-(4-aminophenyl)-1,2-dihydro-1-methyl-2-propylcarbamoyl-6,7-methylenedioxyphthalazine]
[1]; bath application of AP5 (50 μM) plus SYM2206 (100 μM), n=17, LA neurons
  effect on EPSCs: reduced, but did not completely block
AMPA receptors; AMPA receptors, read-out: half-maximal inhibitory concentration
  IC50: 1000 to 2000 nM
AMPA receptors; SYM2206 at 100 μM
  inhibition of AMPA receptors: maximal inhibition
KARs
  inhibition of KARs: 20-30%

## N#Cc1cc2[nH]c(=O)c(=O)[nH]c2cc1[N+](=O)[O-] [CNQX]
[1]; CNQX 20 μM, after AP5 plus SYM2206, n=5
  effect on residual (SYM2206-insensitive) current: completely blocked
